Laboratory results reported in patent publication US8987486B2, “Trans-2-decenoic acid derivative and pharmaceutical agent containing the same” (Nagoya Industrial Science Research Institute, priority 2010, dated 2015).

Assays:
[1] = test system: MAP kinase; assay: Activation (phosphorylation) of MAP kinase by Western immunoblotting in cultured cerebral cortex nerve cells; format: cell-based, rat; design: pMAPK/MAPK: unit not given here; conditions: for Ratio of pMAPK to MAPK: Test Example 6, relative to control (0 μg/mL = 1.0)
Method: With regard to the compound 1 ((E)-2-(dimethylamino)-ethyl dec-2-enoate), activation of MAP kinase was measured as follows by a Western immunoblotting.
Nerve cells were dispersed from cerebral cortex of a fetal rat of 17 days age and said nerve cells were cultured for one day in a Dulbecco-modified Eagle medium (DMEM) containing 5% fetal bovine serum. The culture medium was exchanged with a serum-free medium (B27 supplement-added Neurobasal; Invitrogen) and the nerve cells were cultured at the density of 20,000 to 40,000 cells per cm^2 in a culture dish coated with polyornithine.
After three days, the compound 1 was added and the culture was continued for 30 minutes. After that, the cells were recovered on ice using a solution containing a phosphatase inhibitor where Tris-HCl buffer was a base. Protein concentration of the resulting cell extract was quantified using a BCA Protein Assay Kit (Takara Bio KK) and a certine amount of protein (3 μg for the measurement of MAP kinase and 5 μg for the measurement of phosphorylated MAP kinase) was subjected to polyacrylamide gel electrophoresis. The protein was transcribed from the gel after the electrophoresis to a PVDF membrane and a Western immunoblotting was carried out using each of an anti-MAP kinase antibody (Cell Signaling Technology) and an anti-phosphorylated MAP kinase antibody (Cell Signaling Technology) of the primary antibody.
After that, the reaction with an alkaline phosphatase-labeled anti-rabbit IgG antibody (Promega) of the secondary antibody was carried out so that the enzymatic activity was colorized whereupon the MAP kinase and the phosphorylated MAP kinase were measured.
Incidentally, the compound 1 was adjusted to the concentrations of 10 μg/ml, 30 μg/ml, 100 μg/ml and 300 μg/ml by dissolving in 0.1% DMSO. With regard to the control, 0.1% DMSO was added.
Intensity of the concentration of the above-obtained band of the gel subjected to electrophoresis was calculated and quantified using Image J (K. K. Bioarts). The numerical value for the MAP kinase using the compound 1 was divided by the numerical value for the MAP kinase of the control and, further, the numerical value for the phosphorylated MAP kinase using the compound 1 was divided by the numerical value for the phosphorylated MAP kinase of the control whereupon the ratio of the MAP kinase using the compound 1 to the control and the ratio of the phosphorylated kinase using the compound 1 to the control were determined.
After that, the resulting ratio of the phosphorylated MAP kinase to the control was divided by the resulting ratio of the MAP kinase to the control to determine the ratio of the phosphorylated MAP kinase to the MAP kinase (cf. Table 5). In Table 5, “MAPK” means a MAP kinase and “pMAPK” means a phosphorylated MAP kinase. “10”, “30”, “100” and “300” in Table 5 show the examples where 10 μg/ml, 30 μg/ml, 100 μg/ml and 300 μg/ml of the compound 1 were added.
MAP kinase and phosphorylated MAP kinase were measured for the compound 6 ((E)-2-(diethylamino)ethyl dec-2-enoate) and the compound 13 ((E)-2-(2-(diethylamino)ethoxy)ethyl dec-2-enoate) by the same method as in Test Example 1.
Each of the compounds 6 and 13 was dissolved in 0.1% DMSO to adjust to the concentration of 250 μg/ml. With regard to the control, 0.1% DMSO was added. With regard to the concentration of the resulting band of the gel subjected to electrophoresis, its intensity was calculated by the same method as in Test Example 1 using Image J (K. K. Bioarts) and the ratio of the phosphorylated MAP kinase to the control was divided by the resulting ratio of the MAP kinase to the control whereupon the ratio of the phosphorylated MAP kinase to the MAP kinase was determined (cf. Table 6).
With regard to the compound of the present invention, its activation for MAP kinase was measured by the same manner as in Test Example 1.
Each compound was dissolved in 0.1% DMSO to adjust to the concentrations of 30 μg/ml, 60 μg/ml, 125 μg/ml and 250 μg/ml. […]

[2] = test system: male mice injected with corticosterone; assay: Tail suspension test in mice administered corticosterone; format: in vivo; conditions: after two weeks, control 141.15 seconds
Method: Corticosterone suspended in oil was hypodermically injected to male mice of seven weeks age (n=3 to 5) in a dose of […] every day for three weeks. At the same time, the compound of the present invention dissolved in PBS or in a PBS solvent containing DMSO, etc. was orally administered every day for three weeks. After one, two and three week(s), the suppressive effect for depressive symptom was evaluated by a tail suspension test in the same manner as in the above Test Example 7. Incidentally, the test for significance was conducted by a Student's t-test.

[3] = test system: disablement model rats with hemi-transection of spinal cord; assay: Improvement in motor function (BBB scale) in rats with hemi-transection of spinal cord; format: in vivo
Method: Female Wistar rats of seven weeks age (body weight: 120 to 140 g) were anesthetized with pentobarbital (40 mg/kg), thoracic vertebrae were detached to expose the thoracic cord and the left half thereof was cut at the position of the tenth thoracic cord using a sharp razor. After that, the muscle and the skin were satured to prepare disablement model rats with hemi-transection of spinal cord.
The compound of the present invention was dissolved in PBS or in a PBS solvent containing DMSO, etc. and orally administered once daily for 21 to 31 days.
With regard to the group administered with the compound of the present invention (n=3 to 6) and the control group (n=3 to 6), the improvement in motor function of the disablement model rats with hemi-transection of spinal cord was evaluated by a BBB scale (Basso D M, et al., J. Neurotrauma 12:1-21 (1995). Thus, evaluation of motor function was conducted for hind limbs of rats in such respects that whether the joint moves, whether body weight is applied onto the foot, whether walking is done, etc. wherein the movement of the hind limbs was divided into 21 points from no motility to normal state. Incidentally, the test for significance was conducted by a two-way ANOVA, Bonferroni Post test.

[4] = test system: chronic mild stress-induced depressive model mice; assay: Elevated plus maze test in chronic mild stress-induced depressive model mice; format: in vivo; conditions: 1,500 μg/kg orally once daily for three weeks; control 25.37±4.13 seconds
Method: The same operation as in the above Test Example 7 was conducted to prepare chronic mild stress-induced depressive model mice (n=8 to 12). During that time, the compound of the present invention dissolved in PBS or in a PBS solvent containing DMSO, etc. was orally administered once daily for three weeks and, after that, the suppressive effect for anxiety symptom was evaluated by means of an elevated plus maze test. Thus, time when the mouse stayed in an open arm of the elevated plus maze and the frequency (motility amount) of coming in and out of the mouse for both open arm and closed arm were measured. When the anxiety symptom was stronger, the staying time in the open arm was shorter. At that time, it is confirmed that there is no difference in the frequencies for coming in and out the arm between the cases where the stress is and is not loaded. Incidentally, the test for significance was carried out by a one-way ANOVA, Tukey's Multiple Comparison Test.

[5] = 10 μg/ml, 30 minutes, fetal rat cerebral cortex nerve cells
[6] = 30 μg/ml, 30 minutes, fetal rat cerebral cortex nerve cells
[7] = 100 μg/ml, 30 minutes, fetal rat cerebral cortex nerve cells

CCCCCCC/C=C/C(=O)NCCN(CC)CC [Compound 37, (E)-N-2-(diethylamino)ethyl dec-2-enamide]
Ratio of pMAPK to MAPK ([1]; 60 μg/mL): 3.4 | Ratio of pMAPK to MAPK ([1]; 125 μg/mL): 3.4 | Ratio of pMAPK to MAPK ([1]; 250 μg/mL): 4.9

CCCCCCC/C=C/C(=O)NCCN(C)C [Compound 36, (E)-N-2-(dimethylamino)ethyl dec-2-enamide]
immobility time (tail suspension test) ([2]; 300 μg/kg orally every day): 41.63 s | BBB score ([3]; 500 μg/kg orally once daily, after fifteen days, control 9.8): 12.3 | Ratio of pMAPK to MAPK ([1]; 30 μg/mL): 1.6 | Ratio of pMAPK to MAPK ([1]; 60 μg/mL): 5.1 | Ratio of pMAPK to MAPK ([1]; 125 μg/mL): 0.5

CCCCCCC/C=C/C(=O)OCCN(C)C [Compound 1, (E)-2-(dimethylamino)ethyl dec-2-enoate]
pMAPK/MAPK [1, 5]: 674 | pMAPK/MAPK/Control [1, 5]: 1.38 | pMAPK/MAPK [1, 6]: 1071 | pMAPK/MAPK/Control [1, 6]: 2.20 | pMAPK/MAPK [1, 7]: 1043 | pMAPK/MAPK/Control [1, 7]: 2.14 | pMAPK/MAPK ([1]; 300 μg/ml, 30 minutes, fetal rat cerebral cortex nerve cells): 2234

CCCCCCC/C=C/C(=O)OCCN(CC)CC [Compound 6, (E)-2-(diethylamino)ethyl dec-2-enoate]
immobility time (tail suspension test) ([2]; 300 μg/kg orally every day): 60.37 s | staying time in an open arm (elevated plus maze) [4]: 53.57 ± 7.00 s | BBB score ([3]; 100 μg/kg orally once daily, after nine days, control 3.5): 8.3 | pMAPK/MAPK/Control ([1]; 250 μg/ml, Test Example 2, control = 1.00): 1.72

CCCCCCC/C=C/C(=O)SCCN(C)C [Compound 55, (E)-S-2-(dimethylamino)ethyl dec-2-enethioate]
immobility time (tail suspension test) ([2]; 1,500 μg/kg orally every day): 86.71 s | staying time in an open arm (elevated plus maze) [4]: 47.24 ± 7.52 s | BBB score ([3]; 500 μg/kg orally once daily, after fourteen days, control 8.5): 12.3 | BBB score ([3]; 500 μg/kg orally once daily, after seven days, control 1.8): 5.3 | Ratio of pMAPK to MAPK ([1]; 30 μg/mL): 4.6 | Ratio of pMAPK to MAPK ([1]; 60 μg/mL): 8.6 | Ratio of pMAPK to MAPK ([1]; 125 μg/mL): 16.0
